Measured values taken from PubChem BioAssay AID1963430 (Molecular Pharmacology Branch, DTP, NCI, 2024).

System: 521955-158-R2-J5-PDC complex spheroid growth, % test/control
Assay: Anticancer human tumor 521955-158-R2-J5-PDC patient-derived pancreatic carcinoma cell line growth inhibition [Asc]
Conditions: for IC50: curve of first compound; for viability, T/C: stronger effect = lower value
Method in brief: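 Tumor cells were grown as complex spheroids with human endothelial cells (HUVEC) and human mesenchymal stem cells as stroma. Agents were tested alone and in combination, in half-log steps down from the clinical Cmax, or from 10 microM where Cmax was unknown.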

[1] = second compound 0.01 µM, first compound 0.0316 µM
[2] = second compound 0.01 µM, first compound 0.1 µM
[3] = second compound 0.01 µM, first compound 0.316 µM
[4] = second compound 0.01 µM, first compound 1 µM
[5] = second compound 0.0316 µM, first compound 0.0316 µM
[6] = second compound 0.0316 µM, first compound 0.1 µM
[7] = second compound 0.0316 µM, first compound 0.316 µM
[8] = second compound 0.0316 µM, first compound 1 µM
[9] = second compound 0.1 µM, first compound 0.0316 µM
[10] = second compound 0.1 µM, first compound 0.1 µM
[11] = second compound 0.1 µM, first compound 0.316 µM
[12] = second compound 0.1 µM, first compound 1 µM
[13] = second compound 0.316 µM, first compound 0.0316 µM
[14] = second compound 0.316 µM, first compound 0.1 µM
[15] = second compound 0.316 µM, first compound 0.316 µM
[16] = second compound 0.316 µM, first compound 1 µM
[17] = second compound 1 µM, first compound 0.0316 µM
[18] = second compound 1 µM, first compound 0.1 µM
[19] = second compound 1 µM, first compound 0.316 µM
[20] = second compound 1 µM, first compound 1 µM
[21] = second compound 0.01 µM, first compound 0.00316 µM
[22] = second compound 0.01 µM, first compound 0.01 µM
[23] = second compound 0.0316 µM, first compound 0.00316 µM
[24] = second compound 0.0316 µM, first compound 0.01 µM
[25] = second compound 0.1 µM, first compound 0.00316 µM
[26] = second compound 0.1 µM, first compound 0.01 µM
[27] = second compound 0.316 µM, first compound 0.00316 µM
[28] = second compound 0.316 µM, first compound 0.01 µM
[29] = second compound 1 µM, first compound 0.00316 µM
[30] = second compound 1 µM, first compound 0.01 µM
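Note: spheroids exposed to agents for 7 days before readout.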
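Throughout, for viability, T/C: 100% = DMSO vehicle control viability.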

| Compound | IC50 (second compound 0.01 µM) [nM] | IC50 (second compound 0.0316 µM) [nM] | IC50 (second compound 0.1 µM) [nM] | IC50 (second compound 0.316 µM) [nM] | IC50 (second compound 1 µM) [nM] | viability, T/C [1] [%] | viability, T/C [2] [%] | viability, T/C [3] [%] | viability, T/C [4] [%] | viability, T/C [5] [%] | viability, T/C [6] [%] | viability, T/C [7] [%] | viability, T/C [8] [%] | viability, T/C [9] [%] | viability, T/C [10] [%] | viability, T/C [11] [%] | viability, T/C [13] [%] | viability, T/C [14] [%] | viability, T/C [17] [%] | viability, T/C [18] [%] | further results |
| --- | --- | --- | --- | --- | --- | --- | --- | --- | --- | --- | --- | --- | --- | --- | --- | --- | --- | --- | --- | --- | --- |
| C=CC(=O)N1CCN(c2nc(=O)n(-c3c(C)ccnc3C(C)C)c3nc(-c4c(O)cccc4F)c(F)cc23)C(C)C1 (stereo not given) + CNC(C)C(=O)NC1CN(S(=O)(=O)c2cccc(S(=O)(=O)N3CCC4CCC(C(=O)NC(c5ccccc5)c5ccccc5)N4C(=O)C(NC(=O)C(C)NC)C3)c2)CCC2CCC(C(=O)NC(c3ccccc3)c3ccccc3)N2C1=O | > 10000 | > 10000 | > 10000 | > 10000 | > 10000 | 91.1 | 105 | 111 | 118 | 108 | 93.1 | 103 | 94.8 | 91.8 | 111 | 105 | 104 | 100 | 115 | 98.3 | viability, T/C (second compound 0.01 µM, first compound 3.16 µM): 119%; viability, T/C (second compound 0.01 µM, first compound 10 µM): 88.2%; viability, T/C (second compound 0.0316 µM, first compound 3.16 µM): 115%; viability, T/C (second compound 0.0316 µM, first compound 10 µM): 96.7%; viability, T/C [12]: 119%; viability, T/C (second compound 0.1 µM, first compound 3.16 µM): 97.4%; viability, T/C (second compound 0.1 µM, first compound 10 µM): 89.1%; viability, T/C [15]: 97.3%; viability, T/C [16]: 98.2%; viability, T/C (second compound 0.316 µM, first compound 3.16 µM): 106%; viability, T/C (second compound 0.316 µM, first compound 10 µM): 95.2%; viability, T/C [19]: 102%; viability, T/C [20]: 109%; viability, T/C (second compound 1 µM, first compound 3.16 µM): 113%; viability, T/C (second compound 1 µM, first compound 10 µM): 88.3% |
| COc1c(OCCCN2CCOCC2)ccc2c3n(c(=NC(=O)c4cnc(N)nc4)nc12)CCN3 + CNC(C)C(=O)NC1CN(S(=O)(=O)c2cccc(S(=O)(=O)N3CCC4CCC(C(=O)NC(c5ccccc5)c5ccccc5)N4C(=O)C(NC(=O)C(C)NC)C3)c2)CCC2CCC(C(=O)NC(c3ccccc3)c3ccccc3)N2C1=O | 8.04 | 21 | 9.32 | 14.9 | 21.9 | 38.4 | 25.5 | 17.9 | 11.8 | 35 | 30 | 18 | 11.5 | 36.1 | 27.9 | 17.1 | 35.6 | 34.8 | 42.5 | 28.6 | viability, T/C [21]: 63.6%; viability, T/C [22]: 42.8%; viability, T/C [23]: 73.1%; viability, T/C [24]: 71.1%; viability, T/C [25]: 71.3%; viability, T/C [26]: 43.6%; viability, T/C [12]: 11.6%; viability, T/C [27]: 91%; viability, T/C [28]: 52.8%; viability, T/C [15]: 16.5%; viability, T/C [16]: 13.1%; viability, T/C [29]: 83.3%; viability, T/C [30]: 64.5%; viability, T/C [19]: 17.6%; viability, T/C [20]: 12.9% |
| NC1CCC(NC2CC2c2ccccc2)CC1 (stereo not given) + CNC(C)C(=O)NC1CN(S(=O)(=O)c2cccc(S(=O)(=O)N3CCC4CCC(C(=O)NC(c5ccccc5)c5ccccc5)N4C(=O)C(NC(=O)C(C)NC)C3)c2)CCC2CCC(C(=O)NC(c3ccccc3)c3ccccc3)N2C1=O | > 100 | > 100 | > 100 | > 100 | > 100 | 71.6 | 69.1 |  |  | 72 | 64.8 |  |  | 85.8 | 58.8 |  | 68.7 | 72 | 56.6 | 66.5 | viability, T/C (second compound 0.01 µM, first compound 0.000316 µM): 79.9%; viability, T/C (second compound 0.01 µM, first compound 0.001 µM): 70.7%; viability, T/C [21]: 82.2%; viability, T/C [22]: 80.9%; viability, T/C (second compound 0.0316 µM, first compound 0.000316 µM): 88.5%; viability, T/C (second compound 0.0316 µM, first compound 0.001 µM): 81.4%; viability, T/C [23]: 61%; viability, T/C [24]: 79%; viability, T/C (second compound 0.1 µM, first compound 0.000316 µM): 66.5%; viability, T/C (second compound 0.1 µM, first compound 0.001 µM): 83.7%; viability, T/C [25]: 80.7%; viability, T/C [26]: 74.2%; viability, T/C (second compound 0.316 µM, first compound 0.000316 µM): 73.8%; viability, T/C (second compound 0.316 µM, first compound 0.001 µM): 93.5%; viability, T/C [27]: 83%; viability, T/C [28]: 49%; viability, T/C (second compound 1 µM, first compound 0.000316 µM): 82%; viability, T/C (second compound 1 µM, first compound 0.001 µM): 70.5%; viability, T/C [29]: 87.3%; viability, T/C [30]: 90% |
